Reference: patent US20250043250A1, “COMPOSITIONS AND METHODS FOR EXPANDING KERATINOCYTES” (STEMCELL Technologies Canada Inc., priority 2021, published 2025)

Legend:
[1] = tested on: PSC-derived keratinocytes; assay: Adherent monolayer culture of dissociated PSC-derived hair-bearing skin organoid cells: colony emergence and morphology; format: cell-based, human; conditions: H9 ES and 1C iPS derived cells, HKGS medium supplemented with the small molecule(s) (FIG. 11)
Protocol: The aggregates of Example 1 were plated under non-adherent conditions in an AggreWell™ or a 96-well plate, and cultured for 12 days in a skin organoid induction medium, such as STEMdiff™ Skin Organoid Induction Medium (STEMCELL Technologies). Following, the skin organoids are transferred into STEMdiff™ Skin Organoids Maturation Medium (STEMCELL Technologies) for at least 8 weeks, adding or changing the medium every 3-4 days. After the skin organoids have matured, preferably presenting as hair-bearing skin organoids (e.g. hair placode present skin organoids), they are dissociated overnight in a 37 degree incubator in a Dispase solution. […]
Various commercially available cell culture media are marketed for the purpose of culturing human epidermal keratinocytes: EpiLife™ Defined Growth Supplement for use with EpiLife™ medium; Gibco™ Human Keratinocyte Growth Supplement for use with EpiLife medium or Medium 154; and Cnt-57 Epithelial Proliferation Medium. […] Population doublings were also assessed over several weeks for keratinocytes grown from various PSC lines in a culture medium of this disclosure in comparison to EpiLife EDGS and EpiLife HKGS. […]

TP63 = assay: FACS analysis of TP63+ cells; format: cell-based, human; conditions: 1C iPS derived skin organoid cells, HKGS medium with or without supplement (FIG. 12)
Excerpt: WLS-1C iPS cells were formed into hair-bearing skin organoids as described herein and dissociated prior to plating the cells in EpiLife HKGS, or in EpiLife HKGS supplemented with the indicated small molecules. The cells were stained for TP63 expression and analyzed by FACS.
The ability of a commercially available medium to expand PSC-derived keratinocytes could be somewhat restored upon supplementation with one or more small molecule inhibitors, but not to the levels of DermaCult™ (FIG. 11). Specifically, HKGS medium was supplemented with A83-01, DAPT, Y-27632, or all three of A83-01, DAPT, and Y-27632. […] These findings were confirmed in a different experiment where 1C iPS cells were cultured in the foregoing media conditions and analyzed for p63 expression, to distinguish keratinocytes from other cell types included in the PSC-derived skin organoids, such as fibroblasts (FIG. 12).

C[C@@H](N)[C@H]1CC[C@H](C(=O)Nc2ccncc2)CC1 [Y-27632]
emergence of colonies in supplemented HKGS medium [1]: emergence of colonies
emergence of p63+ cells (TP63): emergence of comparable numbers of p63+ cells
